Assay [1] addresses T1, phosphor-EGFR in H1975(L585R/T790M) mutant EGFR expressing cells (Homo sapiens, UniProt P00533, L858R/T790M).
T1 construct: host or cells: NCI-H1975
The experiment in a line: H1975 pEGFR MSD cellular assay. The settings on record: NCI-H1975 cells, serum starved, 1 hour compound incubation, pEGFR Tyr1068 MSD. Type of assay: cell-based. As to the method: H1975 pEGFR MSD Cellular Assays Background:
These assays are intended for determining cellular. […] (Meso Scale Discovery Catalog# N31CB-1).
All cell culture reagents were purchased from Invitrogen/Gibco. Cells are cultured at 37° C. at 5% CO2 and split as recommended by ATCC.
Cell Plating and Serum Starvation:
After six hours, culture medium is aspirated and replaced with serum-free culture medium. Cells are then incubated with the serum-free medium overnight at 37° C. and 5% CO2.
The following day, test compounds are serially diluted in dimethyl sulfoxide (DMSO) and added to cells in serum free medium (final DMSO concentration 0.5%). Assay plates are then incubated for 1 hour at 37° C. and 5% CO2. Following 1 hour of compound incubation cells are then lysed and processed as per the MSD pEGFR assay kit protocol. Cell lysates are added to assay plates pre-coated with antibodies against phosphorylated EGFR. Phosphorylated EGFR in samples are allowed to bind to the capture antibodies overnight at 4° C. The detection antibody (anti-total EGFR, labeled with an electrochemiluminescent SULFO-TAG) is added to the bound lysate and incubated for 1 hour at room temperature. The MSD Read Buffer is added such that when a voltage is applied to the plate electrodes, the labels bound to the electrode surface emit light. The MSD Sector Instrument measures the intensity of the light, and quantitatively measures the amount of phosphorylated-EGFR in the sample. Percent inhibition of EGFR phosphorylation by varying concentrations of test compounds is calculated relative to untreated controls. EC50 values are calculated using the 4 parameter logistic nonlinear regression dose-response model.

A further assay has as its target T2, EGFR del746-750 T790M (Homo sapiens, UniProt P00533, DEL746-750/T790M).
T2 construct: purchased Carna Biosciences 08-528
The experiment in a line: EGFR del746-750 T790M biochemical assay (Caliper mobility shift). To be noted: 5 μM ATP, 30 min, room temperature; apparent Ki (Morrison) converted by Cheng-Prusoff, Km of ATP 2.1 μM; read-out: EGFR(T790M/d746-750) Ki.

T1 sequence (P00533 25-1210 T790M/L858R): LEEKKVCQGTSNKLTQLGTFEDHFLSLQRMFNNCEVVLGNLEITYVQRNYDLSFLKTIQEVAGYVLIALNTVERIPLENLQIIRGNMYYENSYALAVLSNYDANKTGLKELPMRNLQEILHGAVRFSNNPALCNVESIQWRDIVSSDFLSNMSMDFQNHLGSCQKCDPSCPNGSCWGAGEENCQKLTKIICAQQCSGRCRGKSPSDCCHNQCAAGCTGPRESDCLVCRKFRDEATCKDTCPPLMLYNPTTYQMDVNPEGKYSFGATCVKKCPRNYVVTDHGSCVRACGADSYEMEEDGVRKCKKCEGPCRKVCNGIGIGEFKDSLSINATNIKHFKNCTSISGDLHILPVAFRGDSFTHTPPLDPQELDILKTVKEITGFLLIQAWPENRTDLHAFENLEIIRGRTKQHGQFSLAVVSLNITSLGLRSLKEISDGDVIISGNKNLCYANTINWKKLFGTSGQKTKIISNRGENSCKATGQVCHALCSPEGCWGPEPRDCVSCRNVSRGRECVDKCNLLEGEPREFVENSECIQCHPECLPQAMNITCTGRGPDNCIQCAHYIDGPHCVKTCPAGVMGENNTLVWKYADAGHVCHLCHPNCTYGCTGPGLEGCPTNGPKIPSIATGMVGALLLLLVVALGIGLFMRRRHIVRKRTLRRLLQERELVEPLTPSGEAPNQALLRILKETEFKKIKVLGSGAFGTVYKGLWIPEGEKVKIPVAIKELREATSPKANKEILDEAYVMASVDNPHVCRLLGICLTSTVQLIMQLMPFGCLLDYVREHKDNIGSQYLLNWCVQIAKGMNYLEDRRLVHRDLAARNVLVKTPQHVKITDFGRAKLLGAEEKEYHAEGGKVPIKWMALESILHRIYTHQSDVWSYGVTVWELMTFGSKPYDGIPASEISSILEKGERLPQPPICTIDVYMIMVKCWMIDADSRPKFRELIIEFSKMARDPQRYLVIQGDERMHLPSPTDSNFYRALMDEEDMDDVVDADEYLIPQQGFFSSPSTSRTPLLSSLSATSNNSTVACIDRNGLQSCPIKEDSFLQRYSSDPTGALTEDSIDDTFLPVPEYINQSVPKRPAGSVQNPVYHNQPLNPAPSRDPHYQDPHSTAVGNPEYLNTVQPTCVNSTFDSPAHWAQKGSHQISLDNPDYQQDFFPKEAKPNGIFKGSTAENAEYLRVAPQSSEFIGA
T2 sequence (P00533 with tags, fused parts or gaps DEL746-750/T790M limits assumed): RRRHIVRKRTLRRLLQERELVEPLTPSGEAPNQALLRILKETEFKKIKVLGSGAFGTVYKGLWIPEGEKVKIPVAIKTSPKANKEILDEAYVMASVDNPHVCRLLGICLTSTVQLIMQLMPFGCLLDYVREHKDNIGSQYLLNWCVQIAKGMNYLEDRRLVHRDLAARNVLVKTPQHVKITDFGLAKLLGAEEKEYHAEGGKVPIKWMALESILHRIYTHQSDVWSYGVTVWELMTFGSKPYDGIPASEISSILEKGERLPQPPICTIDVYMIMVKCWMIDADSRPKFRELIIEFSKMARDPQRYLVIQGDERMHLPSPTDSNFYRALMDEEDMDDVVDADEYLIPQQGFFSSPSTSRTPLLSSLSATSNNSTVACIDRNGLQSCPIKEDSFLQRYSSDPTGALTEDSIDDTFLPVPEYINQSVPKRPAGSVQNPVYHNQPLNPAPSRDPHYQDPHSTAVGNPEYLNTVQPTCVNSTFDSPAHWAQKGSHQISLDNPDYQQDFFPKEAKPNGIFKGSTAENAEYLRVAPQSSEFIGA

Regarding `CC(C)n1cc(C2CNC(=O)C2)c2cnc(Nc3ccnc(-c4cnn(S(=O)(=O)C5CC5)c4)n3)cc21` (stereo not shown) [Example 256, 4-(6-(2-(1-(Cyclopropylsulfonyl)-1H-pyrazol-4-yl)pyrimidin-4-ylamino)-1-isopropyl-1H-pyrrolo[3,2-c]pyridin-3-yl)pyrrolidin-2-one], the EC50 in assay [1] was 1050 nM.
Consider `Cc1nc2cnc(Nc3ccnc(-c4cnn(S(=O)(=O)C5CC5)c4)n3)cc2n1C(C)C` [Example 52, N-(2-(1-(Cyclopropylsulfonyl)-1H-pyrazol-4-yl)pyrimidin-4-yl)-1-isopropyl-2-methyl-1H-imidazo[4,5-c]pyridin-6-amine], for which, at EGFR del746-750 T790M, the Ki came to 1.8 nM. In addition, in assay [1], the half-maximal effective concentration (EC50) was 254 nM.
The compound `COC1(CO)CCN(c2nccc(Nc3cc4c(cn3)c(-c3cnn(C(C)(C)C(N)=O)c3)cn4C(C)C)n2)CC1` [Example 445, 2-(4-(6-(2-(4-(hydroxymethyl)-4-methoxypiperidin-1-yl)pyrimidin-4-ylamino)-1-isopropyl-1H-pyrrolo[3,2-c]pyridin-3-yl)-1H-pyrazol-1-yl)-2-methylpropanamide] gave an EC50 in assay [1] of 831 nM.
Consider `CC1(C)CCOc2nc3cnc(Nc4ccnc(-c5cnn(S(=O)(=O)C6CC6)c5)n4)cc3n21` [Example 534, [2-(1-Cyclopropanesulfonyl-1H-pyrazol-4-yl)-pyrimidin-4-yl]-(4,4-dimethyl-3,4-dihydro-2H-1-oxa-4a,7,9-triazafluoren-6-yl)amine], for which the Ki on EGFR del746-750 T790M is 5.61 nM. This compound registered a 50% effective concentration (EC50) in assay [1] of 1370 nM.
In the case of `COC1CCN(c2nccc(Nc3cc4c(cn3)nc(C)n4C(C)C)n2)CC1` [Example 5, (1-Isopropyl-2-methyl-1H-imidazo[4,5-c]pyridin-6-yl)-[2-(4-methoxypiperidin-1-yl)pyrimidin-4-yl]amine], the Ki at EGFR del746-750 T790M is 47.7 nM. Moreover, the response in assay [1] was half-maximal at 871 nM (EC50).
In assay [1], `O=S(=O)(C1CC1)n1cc(-c2nccc(Nc3cc4c(cn3)nc(CO)n4-c3ccccc3)n2)cn1` [Example 475, (6-(2-(1-(cyclopropylsulfonyl)-1H-pyrazol-4-yl)pyrimidin-4-ylamino)-l-phenyl-1H-imidazo[4,5-c]pyridin-2-yl)methanol] gave an EC50 of 1810 nM.
In the case of `COC1CCN(c2nccc(Nc3cc4c(cn3)nc(COCCN(C)C)n4C(C)C)n2)CC1` [Example 8, [2-(2-Dimethylaminoethoxymethyl)-1-isopropyl-1H-imidazo[4,5-c]pyridin-6-yl]-[2-(4-methoxypiperidin-1-yl)pyrimidin-4-yl]amine], at EGFR del746-750 T790M, the Ki turned out to be 106 nM. Further, the response in assay [1] was half-maximal at 585 nM (EC50).
Turning to `CCC(C)n1cc(C(=O)NC2CCOC2)c2cnc(Nc3ccnc(N4CCC(O)C(C)(C)C4)n3)cc21` (mixture of isomers) [Example 373, 1-(sec-butyl)-6-((2-(4-hydroxy-3,3-dimethylpiperidin-1-yl)pyrimidin-4-yl)amino)-N-(tetrahydrofuran-3-yl)-1H-pyrrolo[3,2-c]pyridine-3-carboxamide], the Ki on EGFR del746-750 T790M is 4.44 nM. In addition, the concentration giving a half-maximal response (EC50) in assay [1] worked out at 67.3 nM.
Consider `CC(C)n1c(Cl)c(C(=O)NC2CCOCC2)c2cnc(Nc3ccnc(-c4cnn(S(=O)(=O)C5CC5)c4)n3)cc21` [Example 262, 2-Chloro-6-(2-(1-(cyclopropylsulfonyl)-1H-pyrazol-4-yl)pyrimidin-4-ylamino)-1-isopropyl-N-(tetrahydro-2H-pyran-4-yl)-1H-pyrrolo[3,2-c]pyridine-3-carboxamide], for which the Ki at EGFR del746-750 T790M was found to be 1.48 nM. The same compound registered an EC50 in assay [1] of 57.7 nM.
As for `COC1CCN(c2nccc(Nc3cc4c(cn3)c(C#N)cn4C(C)C)n2)CC1` [Example 58, 1-Isopropyl-6-((2-(4-methoxypiperidin-1-yl)pyrimidin-4-yl)amino)-1H-pyrrolo[3,2-c]pyridine-3-carbonitrile], at EGFR del746-750 T790M, the Ki amounted to 60.9 nM. The same compound registered an EC50 in assay [1] of 1410 nM.
Consider `CC1(C)COCc2nc3cnc(Nc4ccnc(-c5cnn(S(=O)(=O)C6CC6)c5)n4)cc3n21` [Example 538, [2-(1-Cyclopropanesulfonyl-1H-pyrazol-4-yl)-pyrimidin-4-yl]-(4,4-dimethyl-3,4-dihydro-1H-2-oxa-4a,7,9-triazafluoren-6-yl)amine], for which the response in assay [1] was half-maximal at 838 nM (EC50).
For the compound `CCC(C)n1cc(C(=O)NC2CCOCC2)c2cnc(Nc3ccnc(-c4cnn(S(=O)(=O)C5CC5)c4)n3)cc21` (single isomer, unassigned; (-)) [Example 322, (−)-1-(sec-butyl)-6-((2-(1-(cyclopropylsulfonyl)-1H-pyrazol-4-yl)pyrimidin-4-yl)amino)-N-(tetrahydro-2H-pyran-4-yl)-1H-pyrrolo[3,2-c]pyridine-3-carboxamide], the Ki at EGFR del746-750 T790M was 1.34 nM. This compound also had an EC50 in assay [1] of 60.9 nM.
Take `CC(C)n1c(OCCO)nc2cnc(Nc3ccnc(-c4cnn(S(=O)(=O)C5CC5)c4)n3)cc21` [Example 282, 2-{6-[2-(1-Cyclopropanesulfonyl-1H-pyrazol-4-yl)pyrimidin-4-ylamino]-1-isopropyl-1H-imidazo[4,5-c]pyridin-2-yloxy}ethanol]: the response in assay [1] was half-maximal at 414 nM (EC50).
Compound `CC(C)n1cc(C(N)=O)c2cnc(Nc3ccnc(-c4cnn(S(=O)(=O)C5CC5)c4)n3)cc21` [Example 51, 6-((2-(1-(Cyclopropylsulfonyl)-1H-pyrazol-4-yl)pyrimidin-4-yl)amino)-1-isopropyl-1H-pyrrolo[3,2-c]pyridine-3-carboxamide] came in with an EC50 in assay [1] of 181 nM.
As for `Cc1nc2cnc(Nc3ccnc(-c4cnn(CC5CC5)c4)n3)cc2n1C(C)C` [Example 395, N-(2-(1-(cyclopropylmethyl)-1H-pyrazol-4-yl)pyrimidin-4-yl)-1-isopropyl-2-methyl-1H-imidazo[4,5-c]pyridin-6-amine], in assay [1], the EC50 was found to be 1340 nM.
`CC(C)n1cc(C(=O)NC2COC2)c2cnc(Nc3ccnc(-c4cnn(S(=O)(=O)N(C)C)c4)n3)cc21` [Example 378, 6-((2-(1-(N,N-dimethylsulfamoyl)-1H-pyrazol-4-yl)pyrimidin-4-yl)amino)-1-isopropyl-N-(oxetan-3-yl)-1H-pyrrolo[3,2-c]pyridine-3-carboxamide] registered an EC50 in assay [1] of 177 nM.
On to `CC(C)n1c(C2CCCO2)nc2cnc(Nc3ccnc(-c4cnn(S(=O)(=O)C5CC5)c4)n3)cc21` (racemic) [Example 565, (±)-[2-(1-Cyclopropanesulfonyl-1H-pyrazol-4-yl)-pyrimidin-4-yl]-[1-isopropyl-2-(tetrahydro-furan-2-yl)-1H-imidazo[4,5-c]pyridin-6-yl]amine], for which the EC50 in assay [1] turned out to be 1160 nM.
`C[C@H](n1c([C@@H](C)O)nc2cnc(Nc3ccnc(-c4cnn(S(=O)(=O)C5CC5)c4)n3)cc21)C(F)(F)F` [Example 572, (R)-1-[6-[2-(1-Cyclopropanesulfonyl-1H-pyrazol-4-yl)-pyrimidin-4-ylamino]-1-((S)-2,2,2-trifluoro-1-methylethyl)-1H-imidazo[4,5-c]pyridin-2-yl]-ethanol] registered an EC50 in assay [1] of 167 nM.
As to `COCC(C)(C)n1c(C)nc2cnc(Nc3ccnc(N4CCC(OC)CC4)n3)cc21` [Example 164, [1-(2-Methoxy-1,1-dimethylethyl)-2-methyl-1H-imidazo[4,5-c]pyridin-6-yl]-[2-(4-methoxypiperidin-1-yl)pyrimidin-4-yl]amine], the EC50 in assay [1] turned out to be 4710 nM.
With `CC(C)n1c(CO)nc2cnc(Nc3ccnc(N4CC[C@H](O)[C@@](C)(F)C4)n3)cc21` [Example 702], the Ki at EGFR del746-750 T790M was 239 nM.
Compound `COC1(CN)CCN(c2nccc(Nc3cc4c(cn3)nc(C)n4C(C)C)n2)CC1` [Example 271, [2-(4-Aminomethyl-4-methoxypiperidin-1-yl)pyrimidin-4-yl](1-isopropyl-2-methyl-1H-imidazo[4,5-c]pyridin-6-yl)amine] returned an EC50 in assay [1] of 5750 nM.
On the same count and under the same terms, the same measure for `COc1ccc(-c2nccc(Nc3cc4c(cn3)ncn4C(C)C)n2)cn1` [Example 54, 1-Isopropyl-N-(2-(6-methoxypyridin-3-yl)pyrimidin-4-yl)-1H-imidazo[4,5-c]pyridin-6-amine]: 3570 nM.
In the case of `COC1CCN(c2nccc(Nc3cc4c(cn3)nc(C)n4C(C)C)n2)CC1(F)F` (racemic) [Example 528, (±)-[2-(3,3-Difluoro-4-methoxypiperidin-1-yl)pyrimidin-4-yl](1-isopropyl-2-methyl-1H-imidazo[4,5-c]pyridin-6-yl)amine], the Ki on EGFR del746-750 T790M stood at 43.3 nM.
For `CC(C)n1c(CO)nc2cnc(Nc3ccnc(N4CC[C@H](O)[C@H](C)C4)n3)cc21` (racemic) [Example 631, (±)-(cis)-1-(4-(2-(Hydroxymethyl)-1-isopropyl-1H-imidazo[4,5-c]pyridin-6-ylamino)pyrimidin-2-yl)-3-methylpiperidin-4-ol], on EGFR del746-750 T790M, the Ki stood at 351 nM.
`CC(C)n1c([C@@H](C)O)nc2cnc(Nc3ccnc(N4CC[C@@H](O)[C@@H](F)C4)n3)cc21` [Example 658]: the Ki on EGFR del746-750 T790M came to 44.3 nM.
For `Cc1nc2cnc(Nc3ccnc(-c4cnc(N(C)C)s4)n3)cc2n1C(C)C` [Example 317, [2-(2-Dimethylaminothiazol-5-yl)pyrimidin-4-yl]-(1-isopropyl-2-methyl-1H-imidazo[4,5-c]pyridin-6-yl)amine], at EGFR del746-750 T790M, the Ki amounted to 2.97 nM.

One may read the EC50 as the concentration giving half of the maximal effect. High values mean weaker potency, low ones greater potency.

(Values after patent US9890152B2 (Genentech, Inc., priority 2012, dated 2018).)
